# According to patent publication US20230017532A1 (Hoffmann-La Roche Inc., priority 2018, published 2023):
# Where a name gives a salt, the structure may show the parent alone.
# Test system: Acinetobacter baumannii ATCC17961
# Experiment: Antimicrobial susceptibility testing: 90% growth inhibitory concentration (IC90) determination, Iso-Sensitest broth, OD 600 nm
# Format: cell-based
# Conditions: 90% growth inhibitory concentration, Acinetobacter baumannii ATCC17961, Iso-Sensitest broth, OD 600 nm over 16 h; read-out: ATCC 17961 IC90
# Outline: (§1)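 Growth of bacteria (~5×10^5 CFU/ml, Iso-Sensitest medium, 35±2 °C) was followed by OD at 600 nm at 20-min intervals over 16 h against a 10-point twofold compound series (e.g. 50–0.097 μM final). Concentration giving 90% inhibition in log phase was reported.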
row,Compound,IC90 [nM]
1,"CCc1cc(Nc2nccn3c(-c4ccc(OC)cc4S(=O)(=O)NC)cnc23)ccc1C(=O)NCCOCCN [Example 55, N-[2-(2-aminoethoxy)ethyl]-2-ethyl-4-[[3-[4-methoxy-2-(methylsulfamoyl)phenyl]imidazo[1,2-a]pyrazin-8-yl]amino]benzamide; formic acid]",2790
2,"COc1ccc(-c2cnc3c(Nc4cc(C)c(C(=O)NCCOCCN)c(Cl)c4)nccn23)c(F)c1F [Example 62, N-(2-(2-aminoethoxy)ethyl)-2-chloro-4-((3-(2,3-difluoro-4-methoxyphenyl)imidazo[1,2-a]pyrazin-8-yl)amino)-6-methyl-benzamide]",1870
3,"COc1ccc(-c2cnc3c(Nc4ccc(C(=O)NCCOCCN)c(F)c4F)nccn23)c(F)c1F [Example 63, N-(2-(2-aminoethoxy)ethyl)-4-((3-(2,3-difluoro-4-methoxy-phenyl)imidazo [1,2-a]pyrazin-8-yl)amino)-2,3-difluoro-benzamide]",880

# Same assay, conditions: Acinetobacter baumannii, ATCC17961, 16 h, read-out: ATCC 17961 IC90
row,Compound,IC90 [nM]
1,"CCc1cc(Nc2nccn3c(-c4ccc(OC)cc4C(F)(F)F)cnc23)ccc1C(=O)NCCOCCN [Example 56, N-(2-(2-aminoethoxy)ethyl)-2-ethyl-4-((3-(4-methoxy-2-(trifluoromethyl)phenyl)imidazo[1,2-a]pyrazin-8-yl)amino)benzamide hydrochloride]",80
2,"COc1ccc(-c2cnc3c(Nc4ccc(C(=O)NCCOCCN)c(C)c4F)nccn23)c(F)c1F [Example 61, dihydrochloride]",140
3,"CCc1cc(Nc2nccn3c(-c4ccc(OC)c(F)c4F)cnc23)ccc1C(=O)NCCOCCN(C)CC(=O)NS(C)(=O)=O [Example 66, 4-((3-(2,3-difluoro-4-methoxyphenyl)imidazo[1,2-a]pyrazin-8-yl)amino)-2-ethyl-N-(2-(2-(methyl(2-(methylsulfonamido)-2-oxoethyl)amino)ethoxy)ethyl)benzamide dihydrochloride]",370
4,"CCc1cc(Nc2nccn3c(-c4ccc(OC)c(F)c4F)cnc23)ccc1C(=O)NCCOCC(C)(C)N [Example 72, N-[2-(2-amino-2-methyl-propoxy)ethyl]-4-[[3-(2,3-difluoro-4-methoxy-phenyl)imidazo[1,2-a]pyrazin-8-yl]amino]-2-ethyl-benzamide; formic acid]",40

# Test system: Acinetobacter baumannii ATCC17978
# Experiment: as above
# Format: cell-based
# Conditions: 90% growth inhibitory concentration, Acinetobacter baumannii ATCC17978, Iso-Sensitest broth, OD 600 nm over 16 h; read-out: ATCC 17978 IC90
# Outline: as §1
row,Compound,IC90 [nM]
1,"CCc1cc(Nc2nccn3c(-c4ccc(OC)c(F)c4F)cnc23)ccc1C(=O)NCCNCCN [Example 186, N-[2-(2-aminoethyl-amino)ethyl]-4-[[3-(2,3-difluoro-4-methoxyphenyl)imidazo[1,2-a]pyrazin-8-yl]amino]-2-ethyl-benzamide;2,2,2-trifluoroacetic acid]",660

# Same assay, conditions: Acinetobacter baumannii, ATCC17978, 16 h, 90% growth inhibitory concentration, Acinetobacter baumannii ATCC17978, Iso-Sensitest broth, OD 600 nm over 16 h; read-out: ATCC 17978 IC90
row,Compound,IC90 [nM]
1,"N#CCOc1ccc(-c2cnc3c(Nc4ccc(C(=O)NCCOCCN5CCNC(C(=O)O)C5)c(Cl)c4)nccn23)c(F)c1F (stereo not drawn) [Example 177, 4-[2-[2-[[2-chloro-4-[[3-[4-(cyanomethoxy)-2,3-difluorophenyl]imidazo[1,2-a]pyrazin-8-yl]amino]benzoyl]amino]ethoxy]ethyl]piperazine-2-carboxylic acid; formic acid]",2300
2,"CCc1cc(Nc2nccn3c(-c4ccc(OC)c(F)c4F)cnc23)ccc1C(=O)NCCCNCC[C@H](N)C(=O)O [Example 183, (2S)-2-amino-4-[3-[[4-[[3-(2,3-difluoro-4-methoxyphenyl)imidazo[1,2-a]pyrazin-8-yl]amino]-2-ethyl-benzoyl]amino]propylamino] butanoic acid; formic acid]",660
3,"CCc1cc(Nc2nccn3c(-c4ccc(OC)c(F)c4F)cnc23)ccc1C(=O)NCCCNCCCN [Example 184, N-[3-(3-aminopropyl-amino)propyl]-4-[[3-(2,3-difluoro-4-methoxyphenyl)imidazo[1,2-a]pyrazin-8-yl]amino]-2-ethyl-benzamide;2,2,2-trifluoroacetic acid]",590
4,"CCc1cc(Nc2nccn3c(-c4ccc(OC)c(F)c4F)cnc23)ccc1C(=O)NCCCNCCN [Example 185, N-[3-(2-aminoethyl-amino)propyl]-4-[[3-(2,3-difluoro-4-methoxyphenyl)imidazo[1,2-a]pyrazin-8-yl]amino]-2-ethylbenzamide; 2,2,2-trifluoro-acetic acid]",590
5,"COc1ccc(-c2cnc3c(Nc4ccc(C(=O)NCCCNCC[C@H](N)C(=O)O)c(C)c4)nccn23)c(F)c1F [Example 187, (2S)-2-amino-4-[3-[[4-[[3-(2,3-difluoro-4-methoxyphenyl)imidazo[1,2-a]pyrazin-8-yl]amino]-2-methyl-benzoyl]amino]propylamino] butanoic acid]",1100
6,"CCc1cc(Nc2nccn3c(-c4ccc(OC)c(F)c4F)cnc23)ccc1C(=O)NCCNCCCN [Example 188, N-[2-(3-amino-propylamino)ethyl]-4-[[3-(2,3-difluoro-4-methoxyphenyl)imidazo[1,2-a]pyrazin-8-y]amino]-2-ethylbenzamide; formic acid]",1200
7,"COc1ccc(-c2cnc3c(Nc4ccc(C(=O)NCCNCCC[C@H](N)C(=O)O)c(C)c4)nccn23)c(F)c1F [Example 189, (2S)-2-amino-5-[2-[[4-[[3-(2,3-difluoro-4-methoxyphenyl)imidazo[1,2-a]pyrazin-8-yl]amino]-2-methyl-benzoyl]amino]ethylamino] pentanoic acid]",2400
8,"CCc1cc(Nc2nccn3c(-c4ccc(Cl)c(F)c4F)cnc23)ccc1C(=O)NCCCNC [Example 192, 4-[[3-(4-chloro-2,3-difluorophenyl)imidazo[1,2-a]pyrazin-8-yl]amino]-2-ethyl-N-[3-(methyl-amino)propyl] benzamide; hydrochloride]",1600
9,"CCc1cc(Nc2nccn3c(-c4ccc(OC(F)F)c(F)c4F)cnc23)ccc1C(=O)NCCCNCCO [Example 193, 4-((3-(4-(difluoro-methoxy)-2,3-difluorophenyl)imidazo[1,2-a]pyrazin-8-yl)amino)-2-ethyl-N-(3-((2-hydroxyethyl)amino)propyl) benzamide]",280
10,"C#CCOc1ccc(-c2cnc3c(Nc4ccc(C(=O)NCCNCCO)c(CC)c4)nccn23)c(F)c1F [Example 195, 4-[[3-(2,3-difluoro-4-prop-2-ynoxy-phenyl)imidazo[1,2-a]pyrazin-8-yl]amino]-2-ethyl-N-[2-(2-hydroxyethyl-amino)ethyl] benzamide]",490
11,"CCc1cc(Nc2nccn3c(-c4ccc(OC)c(F)c4F)cnc23)ccc1C(=O)NCCNCCO [Example 196, 4-((3-(2,3-difluoro-4-methoxyphenyl)imidazo[1,2-a]pyrazin-8-yl)amino)-2-ethyl-N-(2-((2-hydroxyethyl)amino)ethyl) benzamide hydrochloride]",290
12,"CCc1cc(Nc2nccn3c(-c4ccc(OC)c(F)c4F)cnc23)ccc1C(=O)NCCCCNCC(=O)O [Example 197, (4-(4-((3-(2,3-difluoro-4-methoxyphenyl)imidazo[1,2-a]pyrazin-8-yl)amino)-2-ethylbenzamido)butyl)glycine hydrochloride]",370

# Same assay, conditions: Acinetobacter baumannii, ATCC17978, 16 h, read-out: ATCC 17978 IC90
row,Compound,IC90 [nM]
1,"CCc1cc(Nc2nccn3c(-c4ccc(OC(F)F)c(F)c4F)cnc23)ccc1C(=O)NCCOCCO[C@H]1O[C@H](CO)[C@H](O)[C@H](O)[C@H]1O [Example 194, 4-((3-(4-(difluoro-methoxy)-2,3-difluorophenyl)imidazo[1,2-a]pyrazin-8-yl)amino)-2-ethyl-N-(2-(2-(((2S,3R, 4S,5R,6R)-3,4,5-trihydroxy-6-(hydroxymethyl)tetrahydro-2H-pyran-2-yl)oxy)ethoxy)ethyl) benzamide formate]",350
